Laboratory results as given in patent US20120270786A1, “INTESTINE AND MUSCLE RECOVERY” (I.N.R.A., priority 2009, published 2012).
Marks after values point to notes of the source that are not given here.

How the values were obtained:
Assay type in all cases: in vivo, rat
[1] = tested on: starvation-induced body weight loss and intestine atrophy; experiment: Starvation-induced body weight loss and intestine atrophy in saline- or GLP-2-injected rats (experiment 2); conditions: for Body weight / Ileum mass / Jejunum mass / Small intestine mass: GLP-2 20 μg every 12 h, mean ± SEM
Procedure: (§1) Young male Wistar rats (50-60 g) were obtained from Charles River (L'Arbresle, France) and maintained in a temperature controlled room (22±1° C.) with a 12 h light/12 h dark cycle. They were given free access to a standard rodent diet (A03; UAR, Epernay sur Orge, France) and to water during a 5 days acclimatization period. Three experiments were conducted. (1) In the first experiment, rats were fed ad libitum or fasted for 1 or 2 days. At the end of the fasting period, rats were anesthetized with intraperitoneal injection of urethane (1.7 g/kg body weight, Sigma Aldrich, Lyon, France) and sacrificed. (2) In the second experiment, animals were randomly divided into control and GLP-2 treated groups (n=26-30 per group). Injections of saline (400 μL) or GLP-2 (20 μg/400 μL of saline) every 12 h started at day 0 and continued until the end of the experiment. At day 4, half of each group was deprived of food for 2 days. At day 6, animals were sacrificed as described. (3) In the last experiment, rats were allocated as described in experiment 2. Control and GLP-2 treated groups (n=20 per group) were divided into 2 groups of fed (n=5) and starved rats (n=15). Saline and GLP-2 injections continued until the sacrifice of the rats. At day 6, 5 rats from the fed and the 48 h-fasted groups treated or not with GLP-2 were sacrificed as described. The remaining fasted animals from the control and GLP-2 treated groups were refed ad libitum from day 6 for 6 or 24 h. After refeeding, rats were sacrificed as described.
(§2) The entire small intestine was rapidly excised, rinsed three times with ice-cold PBS, blotted and weighed. Ten cm caudal to the pyloric sphincter and ten cm cranial to the ileo-caecal junction were taken and discarded. Jejunum and ileum were excised, weighed, and divided in small pieces of 5 cm. The first piece was immediately processed for cathepsin activities. The remaining pieces were frozen in liquid nitrogen, and stored at −80° C. until further analyses. In experiment 3, skeletal muscles (EDL, gastrocnemius and tibialis anterior) were also carefully dissected and weight.
(§3) Data are expressed as means±SEM. One-way or two-way ANOVA were used to address for fasting effect in experiment 1 and for fasting and GLP-2 effects experiment 2 and 3. A posteriori PLSD Fisher's test was performed in order to assess for differences among groups. P values <0.05 were considered statistical significance and P values <0.10 were considered statistical tendency.

[2] = tested on: villus height and crypt depth in the jejunum and ileum; experiment: Histologic and morphometric measurements of villus height and crypt depth in jejunum and ileum; conditions: GLP-2 treatment
Procedure: as §1
Tissue samples from jejunum and ileum were fixed in 10% formaldehyde buffered with Na2CO3 (10 g/L) and processed for villus height and crypt depth measurements. Treatment designation of slides was blinded at the time of measurement.

[3] = tested on: proteasome; experiment: Peptidase activities of the proteasome in the small intestine of fed and starved rats
Procedure: (§4) Young male Wistar rats (50-60 g) were obtained from Charles River (L'Arbresle, France) and maintained in a temperature controlled room (22±1° C.) with a 12 h light/12 h dark cycle. They were given free access to a standard rodent diet (A03; UAR, Epernay sur Orge, France) and to water during a 5 days acclimatization period. Three experiments were conducted. (1) In the first experiment, rats were fed ad libitum or fasted for 1 or 2 days. At the end of the fasting period, rats were anesthetized with intraperitoneal injection of urethane (1.7 g/kg body weight, Sigma Aldrich, Lyon, France) and sacrificed. […]
Proteins from pieces of jejunum and/or ileum were homogenized using a polytron homogenizer, in ice-cold buffer (pH 7.5) containing 50 mmol/L Tris/HCl, 5 mmol/L MgCl2, 250 mmol/L sucrose, 10 mmol/L ATP, 1 mmol/L DTT, 10 μg/mL aprotinin, 10 μg/mL leupeptin, 10 μg/mL antipain, 10 μg/mL pepstatin A, and 0.2 mmol/L phenylmethylsulphonylfluoride (PMSF). […] The protein content of the proteasome preparation was determined using the Biorad protein assay following the manufacturer instructions. […] The accumulation of AMC at 37° C. during 45 minutes was measured continuously as described for cathepsin activities measurements. The difference between arbitrary fluorescence units recorded with or without 40 μmol/L […]of the proteasome inhibitor MG132 (Affiniti) in the reaction medium was calculated. […]

[4] = tested on: Cathepsin (B, B+S, B+L+S and D); experiment: Cathepsin activities in the jejunum of fed and starved rats
Procedure: as §4
(§5) The five cm pieces of jejunum and/or ileum were immediately homogenized using a polytron homogenizer in a 10 mmol/L phosphate buffer (pH 7.4) containing 50 mmol/L KCl, 1 mmol/L EDTA and 0.25 mol/L sucrose as described previously.^30 Homogenates were then centrifuged at 1,000 g (10 minutes, 4° C.). […] Cathepsin B and cathepsin B+L+S activities were determined using the fluorogenic substrates Z-arginine-arginine-AMC (ZAA-AMC, 50 μmol/L, Sigma), Z-phenylalanine-arginine-AMC (ZPA-AMC, 30 μmol/L, Sigma), respectively.^30 Neutral pH reducing the cathepsin L activity, the bulk of the cathepsin B+L+S activity measured with ZPA-AMC at pH 7.0 reflects the cathepsin B+S activity. […] Fluorescence was measured continuously at 380 nm excitation and 440 nm emission wavelengths. […]

[5] = tested on: Cathepsin B; experiment: Cathepsin B activity in the ileum; conditions: compared with untreated rats, P<0.002
Procedure: as §4, §5

[6] = tested on: Cathepsin B+L+S; experiment: Cathepsin B+L+S activity in the ileum; conditions: compared with untreated rats, P<0.0005
Procedure: as §4, §5

[7] = tested on: starvation-induced skeletal muscle atrophy; experiment: Starvation-induced skeletal muscle atrophy (experiment 3); conditions: for EDL mass / gastrocnemius mass / tibialis anterior mass: GLP-2, mean ± SEM, n=5
Procedure: as §1, §2, §3

[8] = tested on: small intestinal mass; experiment: Small intestinal mass recovery after 48 h starvation and 6 or 24 h refeeding
Procedure: as §1, §2

[9] = tested on: Tibialis anterior, gastrocnemius and EDL muscle masses; experiment: Skeletal muscle mass recovery after 48 h starvation and 24 h refeeding
Procedure: as §1, §2

[10] = GLP-2 effect, two-way ANOVA, P<0.0001

“HGDGSFSDEMNTILDNLATRDFINWLIQTKITD (Rat GLP-2 sequence with an Ala-->Gly exchange in position 2) [Rat recombinant GLP-2, [Ala] in position 2 substituted by [Gly] to make the peptide resistant to DPP IV degradation]” was tested, and the “atrophy of the jejunum” value ([1]; GLP-2-treated starved rats vs. saline injected-fed rats, P<0.005) was −12%, the “increase of jejunal mass” value [1, 10] was 21% and the “increase of total small intestinal mass” value [1, 10] was 22%. For the same sequence, the “increase of ileal mass” value ([1]; GLP-2 effect, two-way ANOVA, P<0.005) was 17.5%, the “starvation-induced loss of body weight” value ([1]; GLP-2 treated group, starved vs fed) was −22% and the “whole small intestine and ileum mass” value ([1]; GLP-2 treated-starved rats compared with saline injected-fed rats) was “similar”. For the same sequence, the Body weight ([1]; fed rats, day 6) was 112.5 ± 1.7^a g, the Ileum mass ([1]; fed rats) was 1.24 ± 0.07^b g and the Jejunum mass ([1]; fed rats) was 3.45 ± 0.08^b g. For the same sequence, the Small intestine mass ([1]; fed rats) was 5.57 ± 0.17^b g, the Body weight ([1]; rats starved 2 days) was 87.2 ± 1.0^b g and the Ileum mass ([1]; rats starved 2 days) was 1.02 ± 0.05^a g. The Jejunum mass ([1]; rats starved 2 days) was 2.62 ± 0.09^d g, the Small intestine mass ([1]; rats starved 2 days) was 4.56 ± 0.11^a g and the “reduction of the atrophy of the small intestine induced by starvation” value ([1]; starved rats receiving GLP-2) was 16%. For the same sequence, the “villus height in the ileum” value [2] was “no effect”, the “crypt depth in the ileum” value ([2]; following fasting) was “did not inhibit the reduction” and the “crypt depth in the jejunum” value ([2]; following starvation) was “blocked the decrease”. For the same sequence, the “reduction of the villus height in the jejunum” value ([2]; following starvation) was −13%, the “Peptidase activities of the proteasome” value ([3]; jejunum or ileum, daily administration of GLP-2) was “not modified” and the “increase of the chymotrypsin- and the trypsin-like activities” value ([3]; jejunum, following fasting) was “did not block the increase”. For the same sequence, the cathepsin activities [4] was “blocked the increase”, the “decrease of cathepsin B activity” value [5] was −43% and the “decrease of cathepsin B+L+S activity” value [6] was −50%. For the same sequence, the EDL mass ([7]; fed rats) was 45.7 ± 0.9^a mg, the gastrocnemius mass ([7]; fed rats) was 0.513 ± 0.013^a g and the tibialis anterior mass ([7]; fed rats) was 195.7 ± 5.0^a mg. For the same sequence, the “skeletal muscle loss (tibialis anterior, gastrocnemius, EDL)” value ([7]; following 2 days of starvation) was “did not prevent”, the EDL mass ([7]; starved rats (48 h)) was 37.2 ± 0.9^b mg and the gastrocnemius mass ([7]; starved rats (48 h)) was 0.415 ± 0.006^b g. For the same sequence, the tibialis anterior mass ([7]; starved rats (48 h)) was 156.6 ± 2.0^b mg, the small intestinal atrophy ([8]; after 6 h of refeeding, P<0.001) was 15% and the small intestinal atrophy ([8]; after 24 h of refeeding) was “totally absent”. For the same sequence, the small intestine recovery ([8]; after 24 h of refeeding, GLP-2 treated rats) was “totally recovered”, the “recovery of the small intestinal mass” value ([8]; refed rats after 48 h starvation, compared to saline injected animals) was “accelerated recovery” and the EDL muscle recovery ([9]; after 24 h of refeeding) was “totally recovered”. The “Tibialis anterior muscle recovery” value ([9]; after 24 h of refeeding) was “totally recovered”, the gastrocnemius atrophy ([9]; after 24 h of refeeding, compared to GLP-2 treated fed rats, P<0.05) was 9% and the skeletal muscle recovery ([9]; refeeding after 48 h starvation) was “enhanced”.
